# From patent publication US8034822B2, “Glucokinase activators” (Takeda San Diego, Inc., priority 2006, dated 2011)
# Target: T1, glucokinase (GK) (Homo sapiens, UniProt P35557)
# T1 construct: I.D. No. 1 corresponds to residues 12-465 of glucokinase; made in house; host or cells: E. coli DH10b-T1r, pFLAG-CTC plasmid
# T1 sequence (P35557 with tags, fused parts or gaps isoform P35557-2): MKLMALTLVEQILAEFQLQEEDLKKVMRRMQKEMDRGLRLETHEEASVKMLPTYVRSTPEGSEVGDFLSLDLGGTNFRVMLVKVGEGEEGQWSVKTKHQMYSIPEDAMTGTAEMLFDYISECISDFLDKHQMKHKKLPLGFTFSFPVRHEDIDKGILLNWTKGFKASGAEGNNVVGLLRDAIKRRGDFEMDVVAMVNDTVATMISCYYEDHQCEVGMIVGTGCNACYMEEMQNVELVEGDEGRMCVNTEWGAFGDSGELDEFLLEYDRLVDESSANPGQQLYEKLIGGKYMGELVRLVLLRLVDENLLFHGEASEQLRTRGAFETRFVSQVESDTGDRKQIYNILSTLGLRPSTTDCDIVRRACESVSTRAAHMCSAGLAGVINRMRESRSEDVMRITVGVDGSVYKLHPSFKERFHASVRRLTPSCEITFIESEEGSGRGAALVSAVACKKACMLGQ
# Assay: enzymatic glucokinase activity assay (ATP consumption, KinaseGlo luminescence)
# Format: biochemical
# Conditions: Against GK; Kact = concentration giving 50% of maximal increase in GK activity; 5 μM ATP, 5 mM Glucose, 60 min room temperature; values given as bins; read-out: pKact
# Text: The activity of compounds as glucokinase activators may be assayed in vitro, in vivo or in a cell line. Provided below is an enzymatic glucokinase activity assay.
# Purified glucokinase may be obtained as follows. DNA encoding residues 12-465 of the full-length sequence of the human enzyme may be amplified by PCR and cloned into the HindIII and EcoRI sites of pFLAG-CTC (Sigma). SEQ. I.D. No. 1 corresponds to residues 12-465 of glucokinase.
# The expression of recombinant glucokinase protein may be carried out by transformation and growth of DH10b-T1r E. coli cells incorporating the (pFLAG-CTC) plasmid in LB media. Protein expression can be induced in this system by the addition of IPTG to the culture medium.
# Recombinant protein may be isolated from cellular extracts by passage over Sepharose Q Fast Flow resin (Pharmacia). This partially purified GK extract may then be further purified by a second passage over Poros HQ10 (Applied Biosystems). The purity of GK may be determined on denaturing SDS-PAGE gel. Purified GK may then be concentrated to a final concentration of 20.0 mg/ml. After flash freezing in liquid nitrogen, the proteins can be stored at −78° C. in a buffer containing 25 mM TRIS-HCl pH 7.6, 50 mM NaCl, and 0.5 mM TCEP.
# The activation properties of compounds for GK may be determined using a black 384-well-plate format under the following reaction conditions: 25 mM Hepes pH 7.2, 25 mM NaCl, 10 mM MgCl2, 0.01% Brij35, 1 mM DTT, 5 μM ATP, 5 mM Glucose 2% DMSO. The amount of ATP consumed may be determined quantitatively by addition of equal volume of luciferase reagent (luciferase+beetle luciferin—KinaseGlo Luminescent Kinase Assay kit from Promega). The luminescence intensity may be measured by using the Analyst HT from LJL Biosystems.
# The assay reaction may be initiated as follows: 4 μl of substrate mixture (12.5 μM ATP and 12.5 mM Glucose) was added to each well of the plate, followed by the addition of 2 μl of activator (2 fold serial dilutions for 11 data points for each activator) containing 10% DMSO. 4 μL of 1.25 nM GK solution may be added to initiate the reaction. The reaction mixture may then be incubated at room temperature for 60 min, and quenched and developed by addition of 10 μL of luciferase reagent. Luminescence intensities of the resulting reaction mixtures may be measured after a 10 min incubation at room temperature. The luminescence intensity may be measured by using the Analyst HT from LJL Biosystems.
# pKact and % ACTmax values may be calculated by non-linear curve fitting of the compound concentrations and luminescence intensities to a standard inhibition/activation equation.
row,SMILES,EC50
1,"O=C(Nc1nc2ccccc2s1)C(CC1CCCCC1)n1cnc2ccc(F)cc2c1=O (stereo not shown) [Compound 35, N-(benzo[d]thiazol-2-yl)-3-cyclohexyl-2-(6-fluoro-4-oxoquinazolin-3(4H)-yl)propanamide]",501 to 794 nM
2,"O=C(Nc1ccccn1)C(CC1CCCCC1)n1cnc2ccc(F)cc2c1=O (stereo not shown) [Compound 36, 3-cyclohexyl-2-(6-fluoro-4-oxoquinazolin-3(4H)-yl)-N-(pyridin-2-yl)propanamide]",≥ 2000 nM
3,"Cn1c(=O)n(C(CC2CCCCC2)C(=O)Nc2nccs2)c(=O)c2cc(Cl)ccc21 (stereo not shown) [Compound 39, 2-(6-chloro-1-methyl-2,4-dioxo-1,2-dihydroquinazolin-3(4H)-yl)-3-cyclohexyl-N-(thiazol-2-yl)propanamide]",≥ 2000 nM
4,"CS(=O)(=O)c1ccc2c(=O)n(C(CC3CCCCC3)C(=O)Nc3ncc(Cl)s3)c(=O)[nH]c2c1 (stereo not shown) [Compound 55, N-(5-Chloro-thiazol-2-yl)-3-cyclohexyl-2-(7-methanesulfonyl-2,4-dioxo-1,4-dihydro-2H-quinazolin-3-yl)-propionamide]",501 to 794 nM
5,"O=C(Nc1ncc(F)s1)C(CC1CCCCC1)n1c(=O)[nH]c2ccc(F)cc2c1=O (stereo not shown) [Compound 57, 3-Cyclohexyl-2-(6-fluoro-2,4-dioxo-1,4-dihydro-2H-quinazolin-3-yl)-N-(5-fluoro-thiazol-2-yl)-propionamide]",≥ 2000 nM
6,"CS(=O)(=O)c1ccc2c(=O)n(C(CC3CCCCC3)C(=O)Nc3ccccn3)cnc2c1 (stereo not shown) [Compound 60, 3-Cyclohexyl-2-(7-methanesulfonyl-4-oxo-4H-quinazolin-3-yl)-N-pyridin-2-yl-propionamide]",≥ 2000 nM
7,"CCS(=O)(=O)c1ccc2c(=O)n(C(CC3CCCCC3)C(=O)Nc3ccc(Cl)cn3)cnc2c1 (stereo not shown) [Compound 72, N-(5-Chloro-pyridin-2-yl)-3-cyclohexyl-2-(7-ethanesulfonyl-4-oxo-4H-quinazolin-3-yl)-propionamide]",501 to 794 nM
8,"O=C(Nc1ccc(Cl)cn1)C(CC1CCCCC1)n1cnc2cc(S(=O)(=O)C3CC3)ccc2c1=O (stereo not shown) [Compound 75, N-(5-Chloro-pyridin-2-yl)-3-cyclohexyl-2-(7-cyclopropanesulfonyl-4-oxo-4H-quinazolin-3-yl)-propionamide]",501 to 794 nM
9,"CCOC(=O)CCc1ccc(NC(=O)C(CC2CCCCC2)n2cnc3cc(S(C)(=O)=O)ccc3c2=O)nc1 (stereo not shown) [Compound 76, 3-{6-[3-Cyclohexyl-2-(7-methanesulfonyl-4-oxo-4H-quinazolin-3-yl)-propionylamino]-pyridin-3-yl}-propionic acid ethyl ester]",≥ 2000 nM
10,"CS(=O)(=O)c1ccc2c(=O)n(C(Cc3c(F)cccc3F)C(=O)Nc3ccc(Cl)cn3)cnc2c1 (stereo not shown) [Compound 77, N-(5-Chloro-pyridin-2-yl)-3-(2,6-difluoro-phenyl)-2-(7-methanesulfonyl-4-oxo-4H-quinazolin-3-yl)-propionamide]",1000 to 1580 nM
11,"CC(C)S(=O)(=O)c1ccc2ncn(C(CC3CCCCC3)C(=O)Nc3ccc(Cl)cn3)c(=O)c2c1 (stereo not shown) [Compound 84, N-(5-Chloro-pyridin-2-yl)-3-cyclohexyl-2-[4-oxo-6-(propane-2-sulfonyl)-4H-quinazolin-3-yl]-propionamide]",501 to 794 nM

# Next, values leading:
row,EC50,SMILES
1,≥ 2000 nM,"O=C(Nc1ncc(Cl)s1)C(CC1CCCCC1)n1c(=O)[nH]c2ccc(F)cc2c1=O (stereo not shown) [Compound 38, N-(5-chlorothiazol-2-yl)-3-cyclohexyl-2-(6-fluoro-2,4-dioxo-1,2-dihydroquinazolin-3(4H)-yl)propanamide]"
2,1000 to 1580 nM,"O=C(Nc1ncc(Cl)s1)C(CC1CCCCC1)n1cnc2ccc(Cl)cc2c1=O (stereo not shown) [Compound 47, 2-(6-Chloro-4-oxo-4H-quinazolin-3-yl)-N-(5-chloro-thiazol-2-yl)-3-cyclohexyl-propionamide]"
3,≥ 2000 nM,"O=C(Nc1ncc(Cl)s1)C(CC1CCCCC1)n1cnc2ccc(F)cc2c1=O (stereo not shown) [Compound 50, N-(5-Chloro-thiazol-2-yl)-3-cyclohexyl-2-(6-fluoro-4-oxo-4H-quinazolin-3-yl)-propionamide]"
4,1000 to 1580 nM,"CS(=O)(=O)c1ccc2c(=O)n(C(CC3CCCCC3)C(=O)Nc3ncc(Cl)s3)cnc2c1 (stereo not shown) [Compound 56, N-(5-Chloro-thiazol-2-yl)-3-cyclohexyl-2-(7-methanesulfonyl-4-oxo-4H-quinazolin-3-yl)-propionamide]"
5,≥ 2000 nM,"Cc1cnc(NC(=O)C(CC2CCCCC2)n2cnc3cc(S(C)(=O)=O)ccc3c2=O)s1 (stereo not shown) [Compound 61, 3-Cyclohexyl-2-(7-methanesulfonyl-4-oxo-4H-quinazolin-3-yl)-N-(5-methyl-thiazol-2-yl)-propionamide]"
6,≥ 2000 nM,"CS(=O)(=O)c1ccc2c(=O)n(C(CC3CCCCC3)C(=O)Nc3ccc(C(=O)O)cn3)c(=O)[nH]c2c1 (stereo not shown) [Compound 64, 6-[3-Cyclohexyl-2-(7-methanesulfonyl-2,4-dioxo-1,4-dihydro-2H-quinazolin-3-yl)-propionylamino]-nicotinic acid]"
7,≥ 2000 nM,"CS(=O)(=O)c1ccc2c(=O)n(C(CC3CCCCC3)C(=O)Nc3ccc(C(=O)O)cn3)cnc2c1 (stereo not shown) [Compound 65, 6-[3-Cyclohexyl-2-(7-methanesulfonyl-4-oxo-4H-quinazolin-3-yl)-propionylamino]-nicotinic acid]"
8,≥ 2000 nM,"CS(=O)(=O)c1ccc2c(=O)n(C(CC3CCCCC3)C(=O)Nc3ccc(F)cn3)cnc2c1 (stereo not shown) [Compound 70, 3-Cyclohexyl-N-(5-fluoro-pyridin-2-yl)-2-(7-methanesulfonyl-4-oxo-4H-quinazolin-3-yl)-propionamide]"
9,1000 to 1580 nM,"CCS(=O)(=O)c1ccc2c(=O)n(C(CC3CCCCC3)C(=O)Nc3ccc(F)cn3)cnc2c1 (stereo not shown) [Compound 71, 3-Cyclohexyl-2-(7-ethanesulfonyl-4-oxo-4H-quinazolin-3-yl)-N-(5-fluoro-pyridin-2-yl)-propionamide]"
10,1000 to 1580 nM,"O=C(Nc1ccc(F)cn1)C(CC1CCCCC1)n1cnc2cc(S(=O)(=O)C3CC3)ccc2c1=O (stereo not shown) [Compound 74, 3-Cyclohexyl-2-(7-cyclopropanesulfonyl-4-oxo-4H-quinazolin-3-yl)-N-(5-fluoro-pyridin-2-yl)-propionamide]"
11,501 to 794 nM,"CS(=O)(=O)c1ccc2ncn(C(CC3CCCCC3)C(=O)Nc3ccc(Cl)cn3)c(=O)c2c1 (stereo not shown) [Compound 79, N-(5-Chloro-pyridin-2-yl)-3-cyclohexyl-2-(6-methanesulfonyl-4-oxo-4H-quinazolin-3-yl)-propionamide]"
12,≤ 398 nM,"NC(=O)c1ccc(NC(=O)C(CC2CCCCC2)n2cnc3cc(S(=O)(=O)C4CCCC4)ccc3c2=O)nc1 (stereo not shown) [Compound 80, 6-[3-Cyclohexyl-2-(7-cyclopentanesulfonyl-4-oxo-4H-quinazolin-3-yl)-propionylamino]-nicotinamide]"
13,≤ 398 nM,"CCS(=O)(=O)c1ccc2c(=O)n(C(CC3CCCCC3)C(=O)Nc3ccc(C(N)=O)cn3)cnc2c1 (stereo not shown) [Compound 81, 6-[3-Cyclohexyl-2-(7-ethanesulfonyl-4-oxo-4H-quinazolin-3-yl)-propionylamino]-nicotinamide]"
14,≤ 398 nM,"COC(=O)c1ccc(NC(=O)C(CC2CCCCC2)n2cnc3cc(S(=O)(=O)C4CCCC4)ccc3c2=O)nc1 (stereo not shown) [Compound 83, 6-[3-Cyclohexyl-2-(7-cyclopentanesulfonyl-4-oxo-4H-quinazolin-3-yl)-propionylamino]-nicotinic acid methyl ester]"
